# Test results reported in article PMC10439952, “JT002, a small molecule inhibitor of the NLRP3 inflammasome for the treatment of autoinflammatory disorders” (Scientific Reports, 2023).
# Tests used:
# [1] = Pharmacokinetics in male Beagle dogs after i.v. and p.o. administration; assay type: in vivo; details: plasma, Dog
# Description: (§1) The pharmacokinetics (PK) of JT002 were assessed in male Sprague–Dawley rats and male Beagle dogs after intravenous (i.v.) and oral (p.o.) administration (Table 2). […] In dogs, a maximum drug plasma concentration (Cmax) of 4.0 µg/mL (9 µM) was reached 1 h after a single 1 mg oral dose. Dose-adjusted exposures (dose-adjusted AUC) from oral administration were close to identical between rat and dog (11.8 versus 11.6) (Table 2).
# NLRP3 inflammasome = NLRP3 inflammasome (Homo sapiens, UniProt Q96P20); experiment: Inhibition of IL-1β production in human PBMCs stimulated by LPS + nigericin; assay type: cell-based; parameters: host or cells: human PBMCs; fresh heparinised human whole blood from healthy volunteers; details: Human PBMC, read-out: Geo Av IC50, IL-1β
# Chain of NLRP3 inflammasome (Q96P20 whole entry): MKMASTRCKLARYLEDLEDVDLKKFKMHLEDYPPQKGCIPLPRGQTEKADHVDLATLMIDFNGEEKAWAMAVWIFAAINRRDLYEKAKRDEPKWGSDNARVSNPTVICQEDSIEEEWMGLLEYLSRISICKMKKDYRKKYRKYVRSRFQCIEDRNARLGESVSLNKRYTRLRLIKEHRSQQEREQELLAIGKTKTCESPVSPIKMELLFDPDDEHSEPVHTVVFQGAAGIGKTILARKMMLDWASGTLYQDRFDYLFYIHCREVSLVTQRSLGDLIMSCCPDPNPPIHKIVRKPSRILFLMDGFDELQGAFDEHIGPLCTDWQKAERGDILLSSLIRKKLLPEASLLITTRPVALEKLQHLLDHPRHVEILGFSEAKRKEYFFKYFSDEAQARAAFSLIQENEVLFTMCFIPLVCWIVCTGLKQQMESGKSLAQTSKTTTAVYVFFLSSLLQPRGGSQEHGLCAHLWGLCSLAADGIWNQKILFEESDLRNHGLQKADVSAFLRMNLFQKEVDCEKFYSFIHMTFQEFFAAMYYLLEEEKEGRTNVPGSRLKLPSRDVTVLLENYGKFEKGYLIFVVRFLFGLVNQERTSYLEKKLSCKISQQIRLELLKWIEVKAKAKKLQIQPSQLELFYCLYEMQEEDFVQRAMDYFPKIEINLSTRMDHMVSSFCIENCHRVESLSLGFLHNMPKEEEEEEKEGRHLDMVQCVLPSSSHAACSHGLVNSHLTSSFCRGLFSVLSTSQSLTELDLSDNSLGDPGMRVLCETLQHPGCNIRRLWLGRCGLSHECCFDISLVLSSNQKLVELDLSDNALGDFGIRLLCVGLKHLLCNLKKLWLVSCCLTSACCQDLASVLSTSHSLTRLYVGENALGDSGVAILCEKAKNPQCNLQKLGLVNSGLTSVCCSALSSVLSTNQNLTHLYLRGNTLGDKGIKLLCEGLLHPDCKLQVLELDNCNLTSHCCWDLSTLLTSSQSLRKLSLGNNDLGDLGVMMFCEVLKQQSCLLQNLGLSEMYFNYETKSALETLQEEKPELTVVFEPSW
# Description: Inflammasome activation and whole blood assays were essentially carried out as described earlier. Details can be found in the supplementary information section accompanying this publication. A protocol for blood draws from healthy volunteers and use of the blood in preclinical assays was approved by Western Institutional Review Board, Inc (Puyallup, WA, USA). Informed consent was obtained from each donor prior to the first blood draw.
# (§2) Cell viability was determined by addition of an equal volume of CellTiter-Glo® 2.0 reagent (Promega) to the remaining cells/supernatant in each well. Intracellular Caspase-1 activity was measured using the Caspase-Glo® assay (Promega) according to the manufacturer’s instructions. The biochemical capsase-1 assay was conducted at Reaction Biology Corporation (Malvern, USA). Human IL-1β, IL-1α, and TNFα and mouse IL-1β were measured in cell culture supernatants using homogeneous time resolved fluorescence assay kits (HTRF, Cisbio, Codolet, France). Human IL-18 was measured in cell culture supernatants using an ELISA kit (R&D Systems, Minneapolis, MN, USA). Plasma IL-1β concentrations were determined by Quantikine® ELISA (R&D Systems, Minneapolis, MN).
# 4H). MS: m/z 433.1 (M+H+). […]
# [2] = test system: intracellular caspase-1 activity; experiment: Intracellular caspase-1 activity in human PBMCs stimulated with LPS + nigericin (Caspase-Glo); assay type: cell-based; details: Human PBMC, read-out: Geo Av IC50, Caspase-1
# Description: as §2
# 4H). MS: m/z 433.1 (M+H+).
# Inflammasome activation.PBMCs (iXCells Biotechnologies, San Diego, USA) were thawed the day before the assay and seeded in complete medium (RPMI 1640 medium with GlutaMAX, supplemented with an additional 2.5 g/L D-glucose, 10% Fet al Bovine Serum, 100 mM Sodium Pyruvate, 1% Penicillin/Streptomycin, 10 mM HEPES and 0.05 mM β -mercaptoethanol) in polystyrene V-bottom 96-well plates at 5x10^4 cells per well and incubated overnight at 37°C with 5% CO 2. The next day, PBMC media was r eplaced with serum-fr ee media p rior t o the assay. […]
# [3] = Pharmacokinetics in male Sprague–Dawley rats after i.v. and p.o. administration; assay type: in vivo
# Description: as §1
# [4] = Rat, single 5 mg oral dose, sodium salt form
# [5] = male, Sprague-Dawley, plasma, iv, Rat, 1 mg/kg
# [6] = male, Sprague-Dawley, plasma, po, Rat, 5 mg/kg
structure (smiles),measurement,setting,value
CO[C@@H]1COc2c(S(=O)(=O)NC(=O)Nc3c4c(cc5c3CCC5)CCC4)cnn2C1 [JT002],Cmax,"[1]; single 1 mg oral dose, read-out: maximum drug plasma concentration (Cmax)",9 µM
same,AUC,"[1]; iv, 1 mg/kg",10600 ng·h/mL
same,half-life,"[1]; iv, 1 mg/kg",1.1 h
same,clearance,"[1]; iv, i.v., 1 mg/kg, read-out: Clpl (plasma clearance)",1.8 mL/min/kg
same,Cmax,"[1]; iv, i.v., 1 mg/kg, read-out: Cmax",7000 ng/mL
same,Vd,"[1]; iv, i.v., 1 mg/kg, read-out: Vss",0.2 L/kg
same,AUC,"[1]; po, 1 mg/kg",11600 ng·h/mL
same,half-life,"[1]; po, 1 mg/kg",1.4 h
same,Tmax,"[1]; po, 1 mg/kg, median",1 h
same,Cmax,"[1]; po, p.o., 1 mg/kg, read-out: Cmax",4000 ng/mL
same,bioavailability,"[1]; po, p.o., 1 mg/kg, sodium salt form, read-out: %F (oral bioavailability)",100%
same,IC50,NLRP3 inflammasome,6 nM
same,IC50,[2],8 nM
same,%F (oral bioavailability),"[3]; Rat, p.o., 5 mg/kg, sodium salt form",73.2%
same,maximum plasma concentration,[3]; [4],36 µM
same,time of maximum plasma concentration,[3]; [4],thirty
same,AUC,[3]; [5],16200 ng·h/mL
same,Cmax,[3]; [5],10600 ng/mL
same,half-life,[3]; [5],2.8 h
same,clearance,"[3]; male, Sprague-Dawley, plasma, iv, Rat, i.v., 1 mg/kg, read-out: Clpl (plasma clearance)",1 mL/min/kg
same,Vd,"[3]; male, Sprague-Dawley, plasma, iv, Rat, i.v., 1 mg/kg, read-out: Vss",0.2 L/kg
same,AUC,[3]; [6],59200 ng·h/mL
same,Cmax,[3]; [6],15600 ng/mL
same,half-life,[3]; [6],3.4 h
same,Tmax,"[3]; male, Sprague-Dawley, plasma, po, Rat, 5 mg/kg, median",0.5 h
same,bioavailability,"[3]; male, Sprague-Dawley, rat, plasma, po, 5 mg/kg, p.o., 5 mg/kg, sodium salt form, read-out: %F (oral bioavailability)",73%
